Results as given in patent US20130115257A1, “COMPOSITIONS AND METHODS FOR REMOVAL OR DESTRUCTION OF AMYLOID FIBRIL OR AMYLOID ADHESIN COMPRISING AGGREGATES” (KATHOLIEKE UNIVERSITEIT LEUVEN, priority 2010, published 2013).
“Also recorded” adds a separate entry of the source. Counter-ions that a name gives are not always drawn.

Columns and labels:
[1] = water; organic solvents such as ethanol; cited from earlier work
[2] = test system: amyloid fibrils from insulin; assay: Atomic force microscopy of insulin amyloid fibrils incubated with Congo red; format: binding; settings: 140 μmol/L CR in water, 2 hours, fibrils on silicon surface
Experimental: (§1) Amyloid fibrils from the insulin hormone were obtained by dissolving insulin (3.5 mmol/L) in water adjusted to pH 2 with HCl and heated to 70° C. for 2 hours. Samples were diluted to a concentration of 7 μmol/L at room temperature and transferred to a piranha (4:1, H2SO4:H2O2) cleaned naturally oxidized silicon wafer. After 15 minutes of incubation the silicon surface was rinsed with water. The amyloid fibers on the silicon surface are then incubated with a 140 μmol/L solution of CR in water during 2 hours and successively rinsed with water.

[3] = test system: Congo Red-amyloid fibril complex (insulin fibrils); assay: AFM of Congo Red-amyloid fibril complex after incubation with metal ions or colloids (fibril disintegration); settings: CR-stained insulin fibrils, 5 mmol/L silver ions, 15 minutes; for disintegration of the dye-amyloid fibers (AFM image): rinsed and dried
Experimental: as §1
The predominant particles are soluble dimers and higher order aggregates with the hydrophobic regions sequestered from the aqueous environment (D. Watson et al., Neurological Research 27, 869-881 (2005)). The soluble oligomeric amyloid-beta peptides are the principal constituent of amyloid deposits such as plaques and intraneuronal tangles.
The positively charged metal ions bind to the negatively charged sulfonate groups of the dye and interfere with the electrostatic bond between the negatively charged group of the CR molecule and the basic amino acid side chain of the fibril. This way the dye-peptide bond is disrupted at the monomer level, which causes the disintegration of the fibril. Our in vitro study points out that neurodegenerative disorders can be treated by negatively charged molecules, like CR which intercalate between the amyloid β-strands and induce a destabilization of the CR-fibril complex when metallic ions such as silver ions are introduced.

insulin fibrils = assay: Fluorescence microscopy of dye-amyloid fibril complexes; format: binding; settings: insulin fibrils incubated with CR
From the text: The dye-amyloid fibril complexes were also imaged with fluorescence microscopy, as CR is a fluorophore. […] Bright contrast in the fluorescence images corresponds to the presence of the fluorophore on the insulin fibrils, which themselves are not fluorescent.

Nc1c(/N=N/c2ccc(-c3ccc(/N=N/c4cc(S(=O)(=O)O)c5ccccc5c4N)cc3)cc2)cc(S(=O)(=O)O)c2ccccc12 [Congo red, sodium salt of benzidinediazo-bis-1-naphthylamine-4-sulfonic acid]
solubility [1]: water soluble; also recorded: solubility is better in organic solvents such as ethanol
average cross section of the dye-amyloid fiber (AFM) [2]: same dimension as in the absence of CR
disintegration of the dye-amyloid fibers (AFM image) [3]: total disintegration of the amyloid fibrils into peptide monomers
presence of the fluorophore on the insulin fibrils (fluorescence images) (insulin fibrils): bound or intercalated evenly in the insulin fibrils

silver ions
heights of the particles left after disintegration (AFM) [3]: 1-2 nm
disintegration of the dye-amyloid fibers (AFM image) [3]: total disintegration
